Test results published in ChEMBL document CHEMBL4507257, “Data for DCP probe ABT-100” (2021).
Active and inactive are the calls of the source. The calls are words filed in the database; no cut-off is given here.

Assays:
[1] = target: Beta-1 adrenergic receptor (Homo sapiens) (UniProt P08588); conditions: Compound concentration 10.0 uM
Histamine H1 receptor = Histamine H1 receptor (Homo sapiens, UniProt P35367); assay: H1 (central) Ligand binding assay; conditions: Compound concentration 10.0 uM
Aurora kinase B = Aurora kinase B (Homo sapiens, UniProt Q96GD4); assay: Inhibition of AURKB at compound concentration of 10.0 uM using the ScanMax (DiscoverX)
[2] = target: Sodium-dependent dopamine transporter (Homo sapiens) (UniProt Q01959); assay: DA uptake (h) Ligand binding assay
sodium channel (site 2) = sodium channel (site 2) (Homo sapiens, UniProt P35498+P35499+Q01118+Q14524+Q15858+Q99250+Q9NY46+Q9UI33+Q9UQD0+Q9Y5Y9); assay: Na+ channel (site 2) Ligand binding assay; assay type: protein assay
[3] = target: Galanin receptor type 1 (Homo sapiens) (UniProt P47211); assay: GALI (h) Ligand binding assay; conditions: Compound concentration 10.0 uM
[4] = target: Serine/threonine-protein kinase Nek7 (Homo sapiens, UniProt Q8TDX7); assay: Inhibition of NEK7 at compound concentration of 10.0 uM using the ScanMax (DiscoverX)
[5] = target: P2Y receptor (Homo sapiens) (UniProt Q9H244+P51582+P47900+P41231+Q15391+Q15077+Q96G91+Q9BPV8); assay: P2Y Ligand binding assay; assay type: protein assay; conditions: Compound concentration 10.0 uM
[6] = target: voltage-dependent potassium channel (Homo sapiens, UniProt O43525+O43526+O95259+P16389+P17658+P22001+P22459+P22460+P48547+P51787+P56696+Q03721+Q09470+Q12809+Q14003+Q14721+Q16322+Q6PIU1+Q8NCM2+Q8TAE7+Q8TDN1+Q8TDN2+Q92953+Q96KK3+Q96L42+Q96PR1+Q96RP8+Q9BQ31+Q9H252+Q9H3M0+Q9NR82+Q9NS40+Q9NSA2+Q9NZV8+Q9UIX4+Q9UJ96+Q9UK17+Q9ULD8+Q9ULS6+Q9UQ05); assay: K+ channel (Volt-dependent) Ligand binding assay; assay type: protein assay; conditions: compound concentration 10 uM
[7] = target: Neuropeptide Y receptor type 2 (Homo sapiens) (UniProt P49146); assay: Y2 (h) Ligand binding assay; conditions: Compound concentration 10.0 uM
[8] = target: Adrenergic receptor alpha-1 (Homo sapiens) (UniProt P35348+P25100+P35368); assay: alpha1 (non-selective) Ligand binding assay; assay type: protein assay; conditions: Compound concentration 10.0 uM
[9] = target: T1, D(4) dopamine receptor (Homo sapiens) (UniProt P21917); assay: D4.4 (h) Ligand binding assay; conditions: Compound concentration 10.0 uM
T1 sequence (whole entry): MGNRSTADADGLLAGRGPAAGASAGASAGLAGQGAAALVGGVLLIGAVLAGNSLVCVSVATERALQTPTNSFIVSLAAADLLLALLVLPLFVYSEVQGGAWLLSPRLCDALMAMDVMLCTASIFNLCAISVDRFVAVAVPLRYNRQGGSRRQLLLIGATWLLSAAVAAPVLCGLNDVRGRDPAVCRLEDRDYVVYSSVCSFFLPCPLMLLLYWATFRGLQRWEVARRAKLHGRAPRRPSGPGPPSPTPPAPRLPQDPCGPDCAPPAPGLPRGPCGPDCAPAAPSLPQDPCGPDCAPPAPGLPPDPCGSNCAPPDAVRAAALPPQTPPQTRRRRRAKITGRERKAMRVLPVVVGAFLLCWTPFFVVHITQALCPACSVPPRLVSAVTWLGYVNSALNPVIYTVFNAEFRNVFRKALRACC

[10] = Cl- ionophore Ligand binding assay
[11] = Scintillation proximity assay (SPA); parameters: species or system Homo sapiens

Sodium-dependent dopamine transporter (Homo sapiens), sequence (Q01959 whole entry): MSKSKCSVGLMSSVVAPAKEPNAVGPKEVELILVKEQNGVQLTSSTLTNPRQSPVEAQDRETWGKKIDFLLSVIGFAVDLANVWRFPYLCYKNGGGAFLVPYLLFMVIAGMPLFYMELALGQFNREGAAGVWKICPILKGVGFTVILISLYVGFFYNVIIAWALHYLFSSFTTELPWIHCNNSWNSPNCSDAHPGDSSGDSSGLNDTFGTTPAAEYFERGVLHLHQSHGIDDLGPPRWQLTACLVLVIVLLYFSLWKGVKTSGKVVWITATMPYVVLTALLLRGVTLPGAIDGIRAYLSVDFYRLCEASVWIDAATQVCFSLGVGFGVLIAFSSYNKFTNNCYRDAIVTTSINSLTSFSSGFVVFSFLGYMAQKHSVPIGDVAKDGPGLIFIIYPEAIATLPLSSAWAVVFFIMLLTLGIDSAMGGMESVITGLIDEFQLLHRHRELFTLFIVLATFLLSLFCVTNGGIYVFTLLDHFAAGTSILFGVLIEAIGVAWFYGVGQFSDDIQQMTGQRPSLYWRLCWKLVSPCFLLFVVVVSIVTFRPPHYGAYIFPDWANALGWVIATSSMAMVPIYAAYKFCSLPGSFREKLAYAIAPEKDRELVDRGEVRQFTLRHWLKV
Neuropeptide Y receptor type 2 (Homo sapiens), sequence (P49146 whole entry): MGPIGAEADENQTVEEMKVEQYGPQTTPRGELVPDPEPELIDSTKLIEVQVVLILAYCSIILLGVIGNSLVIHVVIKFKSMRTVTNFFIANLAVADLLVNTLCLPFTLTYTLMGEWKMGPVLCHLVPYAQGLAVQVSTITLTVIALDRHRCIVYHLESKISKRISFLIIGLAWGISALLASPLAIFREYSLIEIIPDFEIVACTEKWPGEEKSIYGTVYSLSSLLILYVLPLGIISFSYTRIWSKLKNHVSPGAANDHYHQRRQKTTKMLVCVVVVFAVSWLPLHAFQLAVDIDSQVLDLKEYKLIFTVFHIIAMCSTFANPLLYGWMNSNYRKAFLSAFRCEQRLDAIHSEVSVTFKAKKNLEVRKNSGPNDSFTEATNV
Histamine H1 receptor, sequence (P35367 whole entry): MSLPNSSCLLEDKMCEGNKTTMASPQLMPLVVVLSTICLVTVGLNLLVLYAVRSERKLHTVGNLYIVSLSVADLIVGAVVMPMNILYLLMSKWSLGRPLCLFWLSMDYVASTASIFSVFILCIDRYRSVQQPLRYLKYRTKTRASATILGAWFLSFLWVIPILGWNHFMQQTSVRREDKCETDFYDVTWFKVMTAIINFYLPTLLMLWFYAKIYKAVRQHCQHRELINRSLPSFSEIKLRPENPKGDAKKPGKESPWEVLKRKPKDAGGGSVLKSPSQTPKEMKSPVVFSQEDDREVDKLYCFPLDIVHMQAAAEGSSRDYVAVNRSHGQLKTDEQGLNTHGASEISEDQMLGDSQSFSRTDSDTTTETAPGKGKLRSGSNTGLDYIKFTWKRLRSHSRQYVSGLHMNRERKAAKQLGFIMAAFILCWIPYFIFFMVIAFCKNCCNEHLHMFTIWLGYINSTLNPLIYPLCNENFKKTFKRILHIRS
Aurora kinase B, sequence (Q96GD4 whole entry): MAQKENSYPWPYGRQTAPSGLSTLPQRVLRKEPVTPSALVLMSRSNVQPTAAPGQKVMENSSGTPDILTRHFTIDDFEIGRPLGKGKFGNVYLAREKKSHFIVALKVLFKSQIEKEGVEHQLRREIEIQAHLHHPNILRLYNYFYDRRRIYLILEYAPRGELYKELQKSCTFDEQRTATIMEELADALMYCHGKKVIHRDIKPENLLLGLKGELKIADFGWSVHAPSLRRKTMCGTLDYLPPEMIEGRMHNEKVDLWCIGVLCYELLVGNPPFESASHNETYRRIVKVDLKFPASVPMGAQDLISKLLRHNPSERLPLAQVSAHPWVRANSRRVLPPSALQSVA
Serine/threonine-protein kinase Nek7, sequence (Q8TDX7 whole entry): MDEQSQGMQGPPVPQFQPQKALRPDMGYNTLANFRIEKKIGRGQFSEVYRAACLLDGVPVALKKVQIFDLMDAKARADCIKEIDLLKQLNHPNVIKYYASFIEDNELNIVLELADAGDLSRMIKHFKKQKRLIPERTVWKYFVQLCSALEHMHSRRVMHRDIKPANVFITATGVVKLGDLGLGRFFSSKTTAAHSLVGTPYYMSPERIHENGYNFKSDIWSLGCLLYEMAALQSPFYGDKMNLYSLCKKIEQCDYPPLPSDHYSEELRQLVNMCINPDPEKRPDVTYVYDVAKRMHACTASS
Galanin receptor type 1 (Homo sapiens), sequence (P47211 whole entry): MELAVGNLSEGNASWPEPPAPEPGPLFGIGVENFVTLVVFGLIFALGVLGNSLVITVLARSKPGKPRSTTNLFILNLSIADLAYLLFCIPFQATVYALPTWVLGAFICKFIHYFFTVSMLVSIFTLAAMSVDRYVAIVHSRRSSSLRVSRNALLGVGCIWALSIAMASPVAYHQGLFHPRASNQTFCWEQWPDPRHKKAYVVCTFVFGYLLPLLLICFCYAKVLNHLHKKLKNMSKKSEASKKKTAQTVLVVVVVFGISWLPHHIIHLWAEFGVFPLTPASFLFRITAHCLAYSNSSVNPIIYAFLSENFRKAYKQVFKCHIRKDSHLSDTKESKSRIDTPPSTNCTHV
Beta-1 adrenergic receptor (Homo sapiens), sequence (P08588 whole entry, looked up): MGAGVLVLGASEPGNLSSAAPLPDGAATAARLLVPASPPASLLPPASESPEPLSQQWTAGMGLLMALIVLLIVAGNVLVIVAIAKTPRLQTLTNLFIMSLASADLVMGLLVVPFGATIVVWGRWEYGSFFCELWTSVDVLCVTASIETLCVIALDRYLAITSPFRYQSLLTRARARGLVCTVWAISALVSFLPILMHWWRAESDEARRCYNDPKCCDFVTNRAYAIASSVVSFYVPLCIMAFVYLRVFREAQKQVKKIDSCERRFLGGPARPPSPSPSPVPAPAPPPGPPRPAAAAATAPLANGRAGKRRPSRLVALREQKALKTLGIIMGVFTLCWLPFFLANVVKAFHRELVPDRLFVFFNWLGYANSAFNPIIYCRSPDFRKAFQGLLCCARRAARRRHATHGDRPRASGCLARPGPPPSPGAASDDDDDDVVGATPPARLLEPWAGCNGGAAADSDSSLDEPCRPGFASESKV

In the case of `Cn1cncc1[C@](O)(COc1ccc(C#N)cc1-c1ccc(OC(F)(F)F)cc1)c1ccc(C#N)cc1` [ABT-100], the inhibition [1] was 4.25%, the inhibition (Histamine H1 receptor) was less than 10% and the Kd (Aurora kinase B) was > 10 µM (not active). It also gave an inhibition ([2]; Compound concentration 1.0 uM) of 21%, an inhibition ([2]; Compound concentration 3.0 uM) of 41% and an inhibition ([2]; Compound concentration 10.0 uM) of 75%. For the same molecule, the inhibition at 0.3 µM (sodium channel (site 2); compound concentration 0.3 uM) was 15% (not active), the inhibition at 1 µM (sodium channel (site 2); compound concentration 1 uM) was 10% (not active) and the inhibition at 3 µM (sodium channel (site 2); compound concentration 3 uM) was 22% (not active). For the same molecule, the inhibition at 10 µM (sodium channel (site 2); compound concentration 10 uM) was 58%, the inhibition [3] was less than 10% and the Kd [4] was > 10 µM (not active). The inhibition [5] was less than 10%, the inhibition at 10 µM [6] was < 10% (not active) and the inhibition [7] was less than 10%. For the same molecule, the inhibition [8] was less than 10%, the inhibition [9] was less than 10% and the inhibition ([10]; Compound concentration 3.0 uM) was 30%. For the same molecule, the inhibition ([10]; Compound concentration 10.0 uM) was 67% and the IC50 [11] was 0.05 nM (active).
